Measurements taken from patent US9695133B2, “Quinazolinone-based oncogenic-RAS-selective lethal compounds and their use” (THE TRUSTEES OF COLUMBIA UNIVERSITY IN THE CITY OF NEW YORK, priority 2012, dated 2017).
Read-outs that look alike come from different tables or passages of the source.

Tests used:
[1] = Mouse liver microsome metabolic stability test; assay type: in vitro ADME; details: mouse liver microsome assay
[2] = Water solubility by microplate nephelometer; assay type: physicochemical
Method: The water solubility was determined using a microplate nephelometer (NEPHELOstar, BMG labtech, Cary, N.C.).

With `CC(C)Oc1ccc(CN2CCNCC2)cc1-n1c(CN2CCN(C(=O)COc3ccc(Cl)cc3)CC2)nc2ccccc2c1=O` [PE, 2-((4-(2-(4-chlorophenoxy)ethanoyl)piperazin-1-yl)methyl)-3-(2-isopropoxy-5-(piperazin-1-ylmethyl)phenyl)quinazolin-4(3H)-one] the metabolic stability [1] was “improved metabolic stability in comparison to erastin” and the solubility ([2]; water, nephelometry) was “improved solubility”.

With `CCOc1ccccc1-n1c(C(C)N2CCN(C(=O)COc3ccc(Cl)cc3)CC2)nc2ccccc2c1=O` (stereo not shown) [erastin] the metabolic stability [1] was “metabolic instability” and the solubility [2] was “poor solubility”.
